Holding throughout (assay): NCI-60 cell line screen, 48 h
The test system of test [1] is UACC-257 melanoma.
In test [2] the test system is CCRF-CEM leukemia.
Test [3] relates to RPMI-8226 leukemia.
For test [4], the system named is OVCAR-8 ovarian.
Test [5] deals with OVCAR-4 ovarian.
Test [6] deals with PC-3 prostate.
For test [7], the system named is M14 melanoma.
The subject of test [8] is SNB-19 CNS.
The test system of test [9] is NCI-H23 lung.
Test [10] has as its system OVCAR-3 ovarian.

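Method: 48-hour compound exposure of cells in 96-well plates, five concentrations, linear interpolation of endpoints. GI50 marks 50% less growth. TGI denotes the concentration required for complete inhibition of growth.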

On to `CCc1cc2c(c(OCC(F)(F)F)c(C(=O)NC3CCN(C(=O)CO)CC3)n2C)c(=O)n1CC(=O)c1ccccc1`, for which the GI50 was above 82.2 µM in [1]; 38.5 µM in [2]; 27.7 µM in test [3]; 45.5 µM in test [4]; above 72.2 µM in test [5]; above 73.5 µM in [6]. Moreover, the GI50 in test [7] was above 100 µM; in [8] it was above 100 µM; in test [9], 99.7 µM; in [10], above 100 µM. The TGI in test [1], in test [2], in test [3], in [4], in test [5] and in test [6] was above 100 µM in each case. Moreover, the TGI in test [7], in [8], in [9] and in [10] was above 100 µM in each case.

As for `c1cc(OCCN2CCCC2)ccc1CNc1ccc2nc(CCC3CCCCC3)[nH]c2c1`, the GI50 is 1.83 µM in test [1]; 1.47 µM in test [2]; 1.35 µM in [3]; 2.69 µM in [4]; 2.64 µM in test [5]; 1.93 µM in test [6]. Further, the GI50 was 1.6 µM in test [7], 2.91 µM in test [8], 2.45 µM in test [9] and 1.67 µM in [10]. In addition, the TGI came to 4.04 µM in test [1]; 6.9 µM in test [2]; 3.64 µM in test [3]; 10 µM in test [4]; 12.7 µM in test [5]; 5.16 µM in test [6]. Also, the TGI in test [7] was 3.23 µM; in test [8], 10 µM; in test [9] it was 8.17 µM; in test [10] it was 3.52 µM.

Take `COc1ccc(C(=O)/C=C/c2cc(-c3ccc(OC)c(OC)c3)n[nH]2)cc1OC`: the GI50 in test [1] was 2.16 µM; in [2] it was 0.364 µM; in test [3], 0.357 µM; in [4], 2.63 µM; in [5], 1.92 µM; in test [6], 1.98 µM. The GI50 in test [7] was 1.91 µM; in [8] it was 1.67 µM; in test [9], 2.25 µM; in [10], 1.96 µM. Also, the TGI in [1] amounted to 5.02 µM; in [2], 5.52 µM; in test [3] it was 2.26 µM; in test [4] it was 22.4 µM; in test [5], 8.15 µM; in test [6], 35.7 µM. The TGI stood at 4.11 µM in test [7], 4.16 µM in test [8], 5.7 µM in test [9] and 4.72 µM in test [10].

For `CN1CCN(C)C1c1ccc(C2N(C)CCN2C)cc1`, the GI50 in [1] was above 100 µM; in test [2], 29.8 µM; in [3] it was 19.3 µM; in [4], 38.4 µM; in [5], 38.3 µM; in test [6], above 100 µM. The GI50 was 18.6 µM in test [7], 39.5 µM in test [8], 45.7 µM in test [9] and 41.8 µM in test [10]. In addition, the TGI in test [1] was above 100 µM; in test [2], above 100 µM; in test [3], 59.1 µM; in test [4], above 100 µM; in test [5], above 100 µM; in [6], above 100 µM. For the same compound, the TGI is 58.2 µM in test [7], above 100 µM in test [8], above 100 µM in [9] and above 100 µM in [10].

For `CCCCN(CCCC)P(=O)(Oc1ccccc1)Oc1ccccc1`, the GI50 is 8.04 µM in [1]; 8.35 µM in test [2]; 5.12 µM in test [3]; 11.1 µM in [4]; 7.35 µM in test [5]; 3.79 µM in test [6]. In addition, the GI50 in test [7] was 11.6 µM; in [8] it was 8.82 µM; in [9], 4.56 µM; in test [10], 6.44 µM. Also, the TGI in [1] amounted to 22.4 µM; in [2], 59.3 µM; in test [3], 26.8 µM; in test [4], 27.4 µM; in [5] it was 20.5 µM; in test [6], 17.6 µM. The TGI in test [7] is 25.6 µM; in [8], 23.5 µM; in test [9], 17.7 µM; in [10], 18.7 µM.

For `CCCCCN(CCCCC)CCC[C@@H](C)[C@H]1CC[C@H]2[C@@H]3[C@H](OCCCN)C[C@@H]4C[C@H](OCCCN)CC[C@]4(C)[C@H]3C[C@H](OCCCN)[C@]12C`, the GI50 in test [1] is 13.5 µM; in test [2] it was 4.47 µM; in test [3] it was 1.84 µM; in [4] it was 7.39 µM; in test [5] it was 14.3 µM; in test [6], 11.6 µM. Also, the GI50 in [7] is 6.03 µM; in test [8], 7.9 µM; in test [9], 4.36 µM; in test [10] it was 17 µM. In addition, the TGI is 28.6 µM in test [1]; 20.5 µM in [2]; 4.71 µM in test [3]; 22.9 µM in [4]; 32.6 µM in test [5]; 24.8 µM in [6]. Further, the TGI amounted to 22.5 µM in test [7], 24.3 µM in test [8], 20.6 µM in test [9] and 36.1 µM in test [10].

Regarding `O=c1[nH]c(-c2ccc(Cl)c(Cl)c2)cn1-c1ccc(Cl)cc1`, the GI50 was above 100 µM in test [1]; 40.3 µM in test [2]; 56.9 µM in test [3]; 34.7 µM in test [4]; 19.7 µM in test [5]; 66.9 µM in [6]. Moreover, the GI50 was 29.7 µM in test [7], 30.1 µM in [8], 16.4 µM in test [9] and 27.7 µM in [10]. Also, the TGI in test [1] is above 100 µM; in [2] it was above 100 µM; in test [3] it was above 100 µM; in [4], above 100 µM; in [5], 35.3 µM; in test [6], above 100 µM. In addition, the TGI in [7] was above 100 µM; in test [8] it was 81.2 µM; in test [9], 37.1 µM; in [10], 59 µM.

For the origin of these results see PubChem BioAssay (NCI).
